This assay has as its system osteoclast differentiation. The assay can be described thus: Osteoclast differentiation in co-culture of mouse bone marrow cells and ST2 cells, TRAP staining (Examples 8-9). To be noted: for % number of osteoclast (vs. solvent control group): day 7; for activity at 0.1 µM: Mus musculus, Osteoclast, 168 h, day 7, read-out: % number of osteoclast (vs. solvent control group). Format: cell-based. The procedure, abridged:
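Readout was TRAP-positive multinucleated (≥6 nuclei) cells on day 7, reported as % of 0.1% DMSO control, mean±SD of 4 wells. Cells were mouse (male ddY) bone marrow plus ST2 co-cultures driven by 10^−8 M vitamin D3/dexamethasone. Benzamidines, alendronic acid or risedronic acid were added at 0.1 μM alone or combined, with media renewed days 3 and 5.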

The mark [1] stands for this setting: Combination treatment (alendronic acid + compounds), 0.1 μM each.
[2] abbreviates: Combination treatment (risedronic acid + compounds), 0.1 μM each.
Where [3] appears, read: Individual treatment (compounds), 0.1 μM.

Marks after values point to notes of the source that are not given here.

Take `Cc1nc(-c2ccc(OCCCCCOc3ccc(C(=N)NO)cc3)cc2)c(N)s1` [Compound 331, N-hydroxy-4-{5-[4-(5-amino-2-methyl-thiazol-4-yl)-phenoxy]-pentyloxy}-benzamidine]: the “% number of osteoclast (vs. solvent control group)” value (shortened to “% number of osteoclast”) runs as follows: under setting [1], 18 ± 4.6^ab %; under setting [2], 7 ± 1.2^ac %. In addition, the activity at 0.1 µM under setting [3] came out at 43 ± 2.7%.
As for `Cc1sc(NC(=O)C(C)C)nc1-c1ccc(OCCCCCOc2ccc(C(=N)NO)cc2)cc1` [Compound 69, N-hydroxy-4-{5-[4-(2-(isobutyryl)amino-5-methyl-1,3-thiazol-4-yl)phenoxy]pentyloxy}-benzamidine], the “% number of osteoclast” value reads like this: under setting [1], 49 ± 7.8^ab %; under setting [2], 44 ± 1.4^ac %. For the same compound, the activity at 0.1 µM under setting [3] came to 80 ± 11.6%.
The like results for `Cc1nc(-c2ccc(OCCCCCOc3ccc(C(=N)NO)cc3)cc2)c(CNC(C)(C)C)s1` [Compound 300, N-hydroxy-4-(5-{4-[5-(tert-butylamino-methyl)-2-methyl-thiazol-4-yl]-phenoxy}-pentyloxy)-benzamidine] were, in that order, 12 ± 1.7^ab %, 8 ± 5.2^ac % and 48 ± 3%.
Turning to `CCCCCc1nc(-c2ccc(OCCCCCOc3ccc(C(=N)NO)cc3)cc2)cs1` [Compound 9, N-hydroxy-4-{5-[4-(2-pentyl-1,3-thiazol-4-yl)phenoxy]pentyloxy}-benzamidine], the “% number of osteoclast” value under setting [1] is 52 ± 15.8% and the “% number of osteoclast” value under setting [2] was 43 ± 2.6^ac %. Also, under setting [3], the activity at 0.1 µM turned out to be 64 ± 3.4%.
With `CCCCc1sc(C(C)(C)C)nc1-c1ccc(OCCCCCOc2ccc(C(=N)NO)cc2)cc1` [Compound 37, N-hydroxy-4-{5-[4-(5-butyl-2-t-butyl-1,3-thiazol-4-yl)phenoxy]pentyloxy}-benzamidine], the “% number of osteoclast” value under setting [1] is recorded as 30 ± 9.9^b % and the “% number of osteoclast” value under setting [2] is 36 ± 14.4^c %. Also, the activity at 0.1 µM under setting [3] is 68 ± 18.9%.
The like results for `CN(C)c1nc(-c2ccc(OCCCCCOc3ccc(C(=N)NO)cc3)cc2)c(CCN2CCSCC2)s1` [Compound 267, N-hydroxy-4-(5-{4-[2-dimethylamino-5-(2-thiomorpholin-4-yl-ethyl)-thiazol-4-yl]-phenoxy}-pentyloxy)-benzamidine] were, in that order, 33 ± 5.3^ab %, 13 ± 2.4^ac % and 68 ± 8.6%.
For `CCc1sc(C2CCCCC2)nc1-c1ccc(OCCCCOc2ccc(C(=N)NO)cc2)cc1` [Compound 196, N-hydroxy-4-{4-[4-(2-cyclohexyl-5-ethyl-thiazol-4-yl)-phenoxy]-butoxy}-benzamidine], in that order: 37 ± 4.6^ab %, 42 ± 8.8^ac % and 68 ± 7.1%.
For `CC(C)c1nc(-c2ccc(OCCCCCOc3ccc(C(=N)NO)cc3)cc2)c(CCN2CCN(C)CC2)s1` [Compound 241, N-hydroxy-4-[5-(4-{2-isopropyl-5-[2-(4-methyl-piperazin-1-yl)-ethyl]-thiazol-4-yl}-phenoxy)-pentyloxy]-benzamidine], in that order: 24 ± 4.6^ab %, 12 ± 1.4^ac % and 61 ± 6.8%.
`CCN(CCN1CCOCC1)c1nc(-c2ccc(OCCCCCOc3ccc(C(=N)NO)cc3)cc2)c(C)s1` [Compound 124, N-hydroxy-4-[5-(4-{2-[ethyl-1-(2-morpholinoethyl)-amino]-5-methyl-1,3-thiazol-4-yl}phenoxy)pentyloxy]-benzamidine]: the “% number of osteoclast” value by setting is: under setting [1], 21 ± 4.3^ab %; under setting [2], 17 ± 5.2^ac %; under setting [3], 49 ± 3.0%.
Regarding `N=C(NO)c1ccc(OCCCCCOc2ccc(-c3nc(N(CCN4CCOCC4)Cc4ccccc4)sc3CCN3CCOCC3)cc2)cc1` [Compound 269, N-hydroxy-4-(5-{4-[2-[benzyl-(2-morpholin-4-yl-ethyl)-amino]-5-(2-morpholin-4-yl-ethyl)-thiazol-4-yl]-phenoxy}-pentyloxy)-benzamidine], the “% number of osteoclast” value is recorded as 23 ± 5.2^ab % under setting [1] and 17 ± 4.4^ac % under setting [2]. For the same compound, the activity at 0.1 µM under setting [3] stood at 38 ± 3.7%.
For `CC(C)c1nc(-c2ccc(OCCCCCOc3ccc(C(=N)NO)cc3)cc2)c(CCN2CCSCC2)s1` [Compound 245, N-hydroxy-4-(5-{4-[2-isopropyl-5-(2-thiomorpholin-4-yl-ethyl)-thiazol-4-yl]-phenoxy}-pentyloxy)-benzamidine], in that order: 23 ± 4.9^b %, 16 ± 4.1^ac % and 35 ± 5.7%.
For `N=C(NO)c1ccc(OCCCCCOc2ccc(-c3nc(C4CCCCC4)sc3CCN(C(=O)c3cccnc3)C3CC3)cc2)cc1` [Compound 281, N-hydroxy-4-{5-[4-(2-cyclohexyl-5-{2-[cyclopropyl-(pyridin-3-carbonyl)-amino]-ethyl}-thiazol-4-yl)-phenoxy]-pentyloxy}-benzamidine], in that order: 22 ± 5.9^b %, 6 ± 2.5^ac % and 30 ± 7.6%.
For `Cc1nc(-c2ccc(OCCCCCOc3ccc(C(=N)NO)cc3)cc2)c(CCNC2CCCCC2)s1` [Compound 223, N-hydroxy-4-(5-{4-[5-(2-cyclohexylamino-ethyl)-2-methyl-thiazol-4-yl]-phenoxy}-pentyloxy)-benzamidine], the “% number of osteoclast” value reads like this: under setting [1], 73 ± 8.2%; under setting [2], 60 ± 12.6%. The activity at 0.1 µM under setting [3] was determined as 81 ± 3.8%.
For `CCc1nc(-c2ccc(OCCCCCOc3ccc(C(=N)NO)cc3)cc2)c(CCN2CCOCC2)s1` [Compound 255, N-hydroxy-4-(5-{4-[2-ethyl-5-(2-morpholin-4-yl-ethyl)-thiazol-4-yl]-phenoxy}-pentyloxy)-benzamidine], in that order: 18 ± 1.7^ab %, 12 ± 3.1^ac % and 50 ± 3.9%.
For `Cc1nc(-c2ccc(OCCCCCOc3ccc(C(=N)NO)cc3)cc2)c(CCNCCCn2ccnc2)s1` [Compound 218, N-hydroxy-4-[5-(4-{5-[2-(3-imidazol-1-yl-propylamino)-ethyl]-2-methyl-thiazol-4-yl}-phenoxy)-pentyloxy]-benzamidine], in that order: 39 ± 10.4^b %, 25 ± 7.5^ac % and 56 ± 1.9%.
For `N=C(NO)c1ccc(OCCCCCOc2ccc(-c3nc(-c4cccnc4)sc3CCCl)cc2)cc1` [Compound 80, N-hydroxy-4-{5-[4-(5-(2-chloroethyl)-2-(pyridin-3-yl)-1,3-thiazol-4-yl)phenoxy]pentyloxy}-benzamidine], in that order: 42 ± 9.9^b %, 38 ± 3.7^ac % and 65 ± 1.4%.
In the case of `Cc1nc(-c2ccc(OCC=CCOc3ccc(C(=N)NO)cc3)cc2)c(C(C)C)s1` [Compound 184, N-hydroxy-4-{4-[4-(5-isopropyl-2-methyl-1,3-thiazol-4-yl)-phenoxy]-but-2-enyloxy}-benzamidine], the “% number of osteoclast” value under setting [1] is 38 ± 3.7^ab % and the “% number of osteoclast” value under setting [2] was 38 ± 6.9^ac %. In addition, the activity at 0.1 µM under setting [3] worked out at 62 ± 4.6%.
For `CN(Cc1ccncc1)c1nc(-c2ccc(OCCCCCOc3ccc(C(=N)NO)cc3)cc2)c(CN2CCOCC2)s1` [Compound 309, N-hydroxy-4-(5-{4-[2-(methyl-pyridin-4-ylmethyl-amino)-5-morpholin-4-ylmethyl-thiazol-4-yl]-phenoxy}-pentyloxy)-benzamidine], in that order: 13 ± 5.1^ab %, 8 ± 3.0^ac % and 50 ± 6.1%.
The like results for `N=C(NO)c1ccc(OCCCCCOc2ccc(-c3nc(N4CCCCC4)sc3CC3CCCC3)cc2)cc1` [Compound 167, N-hydroxy-4-{5-[4-(5-cyclopentylmethyl-2-piperidino-1,3-thiazol-4-yl)phenoxy]pentyloxy}-benzamidine] were, in that order, 25 ± 1.9^b %, 31 ± 7.6^ac % and 72 ± 9.8%.
Regarding `Cc1nc(-c2ccc(OCCCCCOc3ccc(C(=N)NO)cc3)cc2)c(CCCl)s1` [Compound 42, N-hydroxy-4-{5-[4-(5-(2-chloro-ethyl)-2-methyl-1,3-thiazol-4-yl)phenoxy]pentyloxy}-benzamidine], the “% number of osteoclast” value runs as follows: under setting [1], 33 ± 1.9^ab %; under setting [2], 32 ± 8.0^ac %. For the same compound, the activity at 0.1 µM under setting [3] is 69 ± 11.4%.
For `N=C(NO)c1ccc(OCCCCCOc2ccc(-c3nc(N4CCOCC4)sc3CC3CCCC3)cc2)cc1` [Compound 168, N-hydroxy-4-{5-[4-(5-cyclopentylmethyl-2-morpholino-1,3-thiazol-4-yl)phenoxy]pentyloxy}-benzamidine], the “% number of osteoclast” value is on record as 39 ± 5.2^ab % under setting [1] and 29 ± 9.7^ac % under setting [2]. Moreover, under setting [3], the activity at 0.1 µM came out at 70 ± 9.1%.
On to `CCCN(CCC)c1nc(-c2ccc(OCCCCCOc3ccc(C(=N)NO)cc3)cc2)c(CC2CCCC2)s1` [Compound 149, N-hydroxy-4-{5-[4-(5-cyclopentylmethyl-2-dipropylamino-1,3-thiazol-4-yl)phenoxy]pentyloxy}-benzamidine], for which the “% number of osteoclast” value under setting [1] was 40 ± 8.8% and the “% number of osteoclast” value under setting [2] was 31 ± 2.5^ac %. The activity at 0.1 µM under setting [3] came to 63 ± 9.9%.

(Values after patent US8008329B2 (Dong Wha Pharmaceutical Co., Ltd., priority 2008, dated 2011).)
